This is an account of results in publication PMC8304761, “Development of an Androgen Receptor Inhibitor Targeting the N-Terminal Domain of Androgen Receptor for Treatment of Castration Resistant Prostate Cancer” (Cancers, 2021).

In one data set the target is T1, full-length AR (Homo sapiens, UniProt P10275, T878A).
T1 construct: against full length AR using an AR-eGFP transcription assay in LNCaP cells; endogenous in cells; host or cells: LNCaP (LN-ARR2PB-eGFP reporter line for A1; parental LNCaP for RIME)
T1 sequence (P10275 1-920 T878A): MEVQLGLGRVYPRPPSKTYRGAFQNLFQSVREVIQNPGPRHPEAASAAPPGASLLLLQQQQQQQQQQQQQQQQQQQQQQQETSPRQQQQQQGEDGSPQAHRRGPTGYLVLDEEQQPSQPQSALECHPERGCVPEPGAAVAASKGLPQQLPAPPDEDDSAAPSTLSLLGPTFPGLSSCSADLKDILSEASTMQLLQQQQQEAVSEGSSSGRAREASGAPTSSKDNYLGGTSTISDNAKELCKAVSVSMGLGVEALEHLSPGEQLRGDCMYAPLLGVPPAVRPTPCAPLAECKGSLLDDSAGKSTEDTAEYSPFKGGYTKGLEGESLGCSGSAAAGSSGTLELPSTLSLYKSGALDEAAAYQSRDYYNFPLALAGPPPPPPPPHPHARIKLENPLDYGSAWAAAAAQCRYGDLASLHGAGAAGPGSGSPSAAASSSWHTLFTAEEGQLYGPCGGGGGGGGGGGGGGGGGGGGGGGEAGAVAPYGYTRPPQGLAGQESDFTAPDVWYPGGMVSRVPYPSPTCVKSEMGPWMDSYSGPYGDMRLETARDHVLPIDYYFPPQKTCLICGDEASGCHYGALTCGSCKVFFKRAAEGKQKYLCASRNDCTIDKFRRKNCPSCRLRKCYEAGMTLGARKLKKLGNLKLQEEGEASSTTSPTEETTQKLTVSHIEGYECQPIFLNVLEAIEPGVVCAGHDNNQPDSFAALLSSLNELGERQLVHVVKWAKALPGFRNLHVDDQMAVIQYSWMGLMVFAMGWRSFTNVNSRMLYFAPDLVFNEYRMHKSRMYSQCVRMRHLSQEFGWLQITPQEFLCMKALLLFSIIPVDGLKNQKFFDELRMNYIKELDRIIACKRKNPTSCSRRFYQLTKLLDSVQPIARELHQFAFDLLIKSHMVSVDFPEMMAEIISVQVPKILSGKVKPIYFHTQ
The experiment in a line: AR fluorescent (eGFP) reporter assay in LN-ARR2PB-eGFP LNCaP cells. Format: cell-based. As for the experimental part:
AR fluorescent reporter assay: Stably transfected eGFP-expressing LNCaP human prostate cancer cells (LN-ARR2PB-eGFP) containing an androgen-responsive probasin-derived promoter (ARR2PB) were assayed, as previously described.
Next, we tested the activity of VPC-220010 against full length AR using an AR-eGFP transcription assay in LNCaP cells. […] PSA is an AR-regulated serine protease and is widely used as a biomarker for PCa.

In data set [1] the test system is prostate specific antigen (PSA). The experiment in a line: Secreted PSA levels in LNCaP cells. The class given is cell-based. To be noted: Homo sapiens, LNCaP; Table 1; read-out: PSA IC50. An excerpt:
Next, we tested the activity of VPC-220010 against full length AR using an AR-eGFP transcription assay in LNCaP cells. […] To further validate VPC-220010 as an AR inhibitor, we evaluated its ability to reduce the production of endogenous prostate specific antigen (PSA) in PCa cell lines. PSA is an AR-regulated serine protease and is widely used as a biomarker for PCa.

The nature of another data set: Microsomal stability. Format: in vitro ADME, human. An excerpt:
However, further medicinal chemistry optimization is needed to make this scaffold stable enough to proceed to potential preclinical studies. […] Study of VPC-220057 scaffold could lead to a VPC-220010- and VPC-220057-derivative that combines their best potency and stability. The corresponding efforts are under way.

In another data set the target is T2, ARV7 (Homo sapiens, UniProt P10275).
T2 sequence (P10275 1-644 isoform P10275-3): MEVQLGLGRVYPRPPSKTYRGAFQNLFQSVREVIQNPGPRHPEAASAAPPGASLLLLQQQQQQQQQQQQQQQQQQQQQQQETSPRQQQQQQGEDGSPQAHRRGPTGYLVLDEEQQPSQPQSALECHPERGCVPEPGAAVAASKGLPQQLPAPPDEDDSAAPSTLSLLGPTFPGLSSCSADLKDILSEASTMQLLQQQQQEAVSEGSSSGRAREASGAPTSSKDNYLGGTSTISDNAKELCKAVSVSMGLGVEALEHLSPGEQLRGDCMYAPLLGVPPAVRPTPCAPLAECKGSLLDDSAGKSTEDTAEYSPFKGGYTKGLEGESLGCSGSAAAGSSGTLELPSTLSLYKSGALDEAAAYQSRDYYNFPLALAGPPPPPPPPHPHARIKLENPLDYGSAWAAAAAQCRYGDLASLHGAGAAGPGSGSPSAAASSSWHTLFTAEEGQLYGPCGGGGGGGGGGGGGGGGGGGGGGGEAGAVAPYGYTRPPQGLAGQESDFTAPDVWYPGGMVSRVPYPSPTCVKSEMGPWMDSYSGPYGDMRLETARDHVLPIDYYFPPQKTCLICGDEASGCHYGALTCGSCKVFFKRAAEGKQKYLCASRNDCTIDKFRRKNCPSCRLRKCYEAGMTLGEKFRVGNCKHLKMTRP

The subject of another data set is LNCaP cells. The data set is described as follows: Proliferation assay (PrestoBlue), LNCaP. The class given is cell-based. Conditions: Homo sapiens, 72 h, R1881, Figure 2C, read-out: IC50, viability of LNCaP cells. As to the method: (§1) Proliferation assay: LNCaP, 22Rv1 and PC3 cells were plated at 3000 cells per well in RPMI1640 containing 5% CSS in a 96-well plate, treated with 0.1 nm R1881 (a synthetic androgen) and test compounds (0–25 μM) for 72 h. Cell proliferation was determined using the PrestoBlue^TM cell proliferation assay following incubation with the compound […] over 72 h. In brief, 30 μL of the PrestoBlue^TM reagent was added to cells in each well of the 96-well plate containing 200 μL of media and incubated for 60 min at 37 °C in 5% CO2. The production of […]. Fluorescence measurement was read on a TECAN F200.
(§2) We then evaluated the effect of VPC-220010 on the proliferation of androgen-dependent LNCaP and ARV7-dependent 22Rv1 cells.

The subject of the next data set is 22Rv1 cells. The data set is described as follows: Proliferation assay (PrestoBlue), 22Rv1. Format: cell-based. To be noted: Homo sapiens, 72 h, Figure 2D, read-out: IC50, viability of 22Rv1 cells. As for the experimental part: as §1, §2
In data set [2] the target is T3, glucocorticoid receptor (GR) (Homo sapiens, UniProt P04150).
T3 sequence (P04150 1-777): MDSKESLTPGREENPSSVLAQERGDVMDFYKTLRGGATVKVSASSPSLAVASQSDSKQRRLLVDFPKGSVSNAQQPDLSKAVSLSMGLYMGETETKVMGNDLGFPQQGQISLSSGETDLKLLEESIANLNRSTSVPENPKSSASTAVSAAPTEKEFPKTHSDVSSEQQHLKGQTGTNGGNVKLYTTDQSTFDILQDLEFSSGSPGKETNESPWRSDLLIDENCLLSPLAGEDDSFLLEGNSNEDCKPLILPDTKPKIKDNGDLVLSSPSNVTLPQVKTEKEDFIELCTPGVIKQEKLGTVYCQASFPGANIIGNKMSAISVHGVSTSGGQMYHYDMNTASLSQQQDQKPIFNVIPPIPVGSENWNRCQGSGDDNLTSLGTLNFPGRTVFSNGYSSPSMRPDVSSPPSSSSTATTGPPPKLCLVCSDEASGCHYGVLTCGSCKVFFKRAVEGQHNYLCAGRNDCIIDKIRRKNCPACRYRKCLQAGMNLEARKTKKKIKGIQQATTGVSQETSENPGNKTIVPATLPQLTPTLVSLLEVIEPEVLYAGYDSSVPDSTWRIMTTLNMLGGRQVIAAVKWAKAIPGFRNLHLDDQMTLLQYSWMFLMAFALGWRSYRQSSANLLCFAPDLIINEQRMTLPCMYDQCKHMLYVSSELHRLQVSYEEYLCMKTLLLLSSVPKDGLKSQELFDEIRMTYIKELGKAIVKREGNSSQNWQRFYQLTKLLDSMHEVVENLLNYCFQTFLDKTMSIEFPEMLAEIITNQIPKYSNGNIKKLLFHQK
The data set is described as follows: Luciferase reporter transcription assay in PC3 cells, GR. Conditions: dexamethasone stimulated; 20 uM; Figure 4. (Reporter assays use an easily measured gene product as a stand-in for the process of interest.)

For data set [3], the target named is T4, progesterone receptor (PR) (Homo sapiens, UniProt P06401).
T4 sequence (P06401 1-933): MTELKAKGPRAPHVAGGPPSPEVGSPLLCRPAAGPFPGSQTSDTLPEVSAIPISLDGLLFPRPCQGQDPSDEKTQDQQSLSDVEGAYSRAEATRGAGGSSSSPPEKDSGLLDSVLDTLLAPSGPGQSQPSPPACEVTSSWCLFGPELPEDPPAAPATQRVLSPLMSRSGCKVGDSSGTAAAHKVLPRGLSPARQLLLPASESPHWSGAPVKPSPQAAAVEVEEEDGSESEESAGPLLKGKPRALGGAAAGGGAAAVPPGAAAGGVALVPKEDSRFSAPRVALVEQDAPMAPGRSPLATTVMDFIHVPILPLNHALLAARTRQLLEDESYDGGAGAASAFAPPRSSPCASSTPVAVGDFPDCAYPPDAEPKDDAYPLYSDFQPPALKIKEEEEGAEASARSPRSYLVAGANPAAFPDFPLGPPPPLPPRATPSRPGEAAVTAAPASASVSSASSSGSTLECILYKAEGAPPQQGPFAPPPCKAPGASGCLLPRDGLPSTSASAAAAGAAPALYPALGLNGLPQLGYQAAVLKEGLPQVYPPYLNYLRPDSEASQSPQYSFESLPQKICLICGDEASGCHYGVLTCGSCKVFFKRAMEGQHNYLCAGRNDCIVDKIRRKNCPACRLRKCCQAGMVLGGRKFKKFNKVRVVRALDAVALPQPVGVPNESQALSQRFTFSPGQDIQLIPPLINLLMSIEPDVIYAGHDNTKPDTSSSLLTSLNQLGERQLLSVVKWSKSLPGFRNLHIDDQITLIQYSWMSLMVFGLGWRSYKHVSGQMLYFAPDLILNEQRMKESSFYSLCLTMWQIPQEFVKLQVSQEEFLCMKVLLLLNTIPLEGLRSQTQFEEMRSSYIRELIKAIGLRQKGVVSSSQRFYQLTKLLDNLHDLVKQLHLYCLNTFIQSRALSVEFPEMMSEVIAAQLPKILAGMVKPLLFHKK
The data set is described as follows: Luciferase reporter transcription assay in PC3 cells, PR. To be noted: progesterone stimulated; 20 uM; Figure 4.

Molecules are shown by their SMILES. Read-outs that look alike come from different tables or passages of the source. A value given as a limit tells only on which side of the number the result lay.

Source text for ARV7: The newly synthesized compounds were screened initially for their ability to inhibit ARV7 transcriptional activity using a cell based ARV7 transcriptional assay.

What is called IC50 is the concentration needed to halve the response being measured. Consider `O[C@@H](CCl)COc1cccc2c(OC[C@@H](O)CCl)cccc12` [RR-220010], for which the IC50 worked out at 0.7 µM at full-length AR (Table 1, read-out: eGFP IC50); 0.7 µM in data set [1]; 5 µM on ARV7. This compound registered a half-life in the data set “Microsomal stability” (human, microsomes) of 11 min. Also, the “activity against ARV7 (in words)” value at ARV7 was “no difference in potency”.

With `O[C@H](CCl)COc1cccc2c(OC[C@H](O)CCl)cccc12` [SS-220010], the IC50 at full-length AR (Table 1, read-out: eGFP IC50) was found to be 0.7 µM; in data set [1], 0.6 µM; on ARV7, 6 µM. In the data set “Microsomal stability” (human, microsomes), this compound yielded a half-life of 12 min. The “activity against ARV7 (in words)” value at ARV7 was “no difference in potency”.

Consider `OC(CCl)CNc1cccc2c(NCC(O)CCl)cccc12` (stereo not drawn) [VPC-2055], for which the IC50 at full-length AR (LNCaP cells, read-out: IC50, full length AR, AR-eGFP transcription assay) is 1 µM; with LNCaP cells, 11.8 µM; in the data set with 22Rv1 cells it was > 50 µM; against ARV7, 8.8 µM. Besides, the “activity against ARV7 (in words)” value on ARV7 is recorded as “active against this truncated variant”.

As for `OC(CCl)COc1c(Br)ccc2c(OCC(O)CCl)c(Br)ccc12` (stereo not drawn) [VPC-220027], the IC50 on full-length AR (Table 1, read-out: eGFP IC50) was found to be 3 µM; in data set [1] it was 4 µM; on ARV7, 4 µM.

Consider `OC(CCl)COc1ccc(Br)c2c(OCC(O)CCl)ccc(Br)c12` (stereo not drawn) [VPC-220028], for which the IC50 is 0.4 µM at full-length AR (Table 1, read-out: eGFP IC50); 0.4 µM in data set [1]; 3 µM on ARV7.

Take `O=[N+]([O-])c1ccc2c(OCC(O)CCl)cccc2c1OCC(O)CCl` (stereo not drawn) [VPC-220054]: the IC50 worked out at 5 µM on full-length AR (Table 1, read-out: eGFP IC50); 5 µM in data set [1]; 3 µM against ARV7.

Turning to `O=[N+]([O-])c1ccc(OCC(O)CCl)c2c([N+](=O)[O-])ccc(OCC(O)CCl)c12` (stereo not drawn) [VPC-220057], on full-length AR (Table 1), the “fold less potent than VPC-220010” value is on record as 10 fold. The IC50 at full-length AR (Table 1, read-out: eGFP IC50) was determined as 10 µM; in data set [1] it was 8 µM; against ARV7 it was 8 µM. Further, the half-life in “Microsomal stability” (microsomal stability, human microsomes, read-out: T1/2) was determined as 462 min.

For `OC(CCl)COc1ccc(Br)c2c(OCC(O)CCl)cccc12` (stereo not drawn) [VPC-220062], the IC50 at full-length AR (Table 1, read-out: eGFP IC50) was 0.5 µM; in data set [1], 0.5 µM; against ARV7 it was 3 µM. For the same compound, the half-life in “Microsomal stability” (human, microsomes) came to 36 min.

Turning to `OC(CCl)COc1ccc2cc(OCC(O)CCl)ccc2c1` (stereo not drawn) [VPC-220075], the IC50 on full-length AR (Table 1, read-out: eGFP IC50) was determined as 0.5 µM; in data set [1], 0.5 µM; against ARV7, 12 µM. Moreover, in the data set “Microsomal stability” (human, microsomes), the half-life is 18 min.

With `CC#C[C@]1(O)CC[C@H]2[C@@H]3CCC4=CC(=O)CCC4=C3[C@@H](c3ccc(N(C)C)cc3)C[C@@]21C` [mifepristone], the “GR transcriptional reporter activity” value in data set [2] is “inhibited”. Besides, in data set [3], the “PR transcriptional reporter activity” value was “inhibited”.
